The results in this text go back to ChEMBL document CHEMBL1126097 (J Med Chem, 1992).

Assay [1] addresses T1, 5-hydroxytryptamine receptor 1D (Cavia porcellus, UniProt Q60484). Briefly: Binding affinity against 5-hydroxytryptamine 1D receptor.
Assay [2] concerns the target 5-hydroxytryptamine receptor 1B (Homo sapiens, UniProt P28222). The experiment in a line: Binding affinity against 5-hydroxytryptamine 1B receptor.
For assay [3], the target named is T2, Serotonin 2 (5-HT2) receptor (Rattus norvegicus, UniProt P30994+P08909+P14842). Briefly: Binding affinity against 5-hydroxytryptamine 2 receptor using [3H]ket as radioligand. The format is protein assay.
The target in assay [4] is T3, 5-hydroxytryptamine receptor 2C (Rattus norvegicus, UniProt P08909).
T3 sequence (P08909 whole entry): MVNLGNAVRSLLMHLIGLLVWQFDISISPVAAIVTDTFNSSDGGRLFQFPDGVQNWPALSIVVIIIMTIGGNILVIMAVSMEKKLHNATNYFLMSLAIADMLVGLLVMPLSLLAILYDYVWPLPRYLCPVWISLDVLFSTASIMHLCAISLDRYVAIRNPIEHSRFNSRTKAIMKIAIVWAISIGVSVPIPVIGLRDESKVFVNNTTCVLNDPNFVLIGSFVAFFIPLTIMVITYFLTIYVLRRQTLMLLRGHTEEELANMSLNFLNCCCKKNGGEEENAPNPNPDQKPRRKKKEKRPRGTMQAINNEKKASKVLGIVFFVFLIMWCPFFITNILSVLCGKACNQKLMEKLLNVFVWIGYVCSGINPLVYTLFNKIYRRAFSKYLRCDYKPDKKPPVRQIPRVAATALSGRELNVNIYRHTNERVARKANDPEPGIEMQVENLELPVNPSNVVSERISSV
The experiment in a line: Binding affinity against 5-hydroxytryptamine 1C receptor.

In assay [5] the target is T2, Serotonin 2 (5-HT2) receptor. The experiment in a line: Binding affinity against 5-hydroxytryptamine 2 receptor using [125I]DOI as radioligand. The format is protein assay.
The target of assay [6] is T1, 5-hydroxytryptamine receptor 1D. The experiment in a line: Effect on forskolin stimulated adenylate cyclase activity at 5-HT1D receptor of guinea pig substantia nigra. In kind it is functional.

Each structure is given as a SMILES string. Some results are limits rather than exact numbers.

T1 sequence (Q60484 whole entry): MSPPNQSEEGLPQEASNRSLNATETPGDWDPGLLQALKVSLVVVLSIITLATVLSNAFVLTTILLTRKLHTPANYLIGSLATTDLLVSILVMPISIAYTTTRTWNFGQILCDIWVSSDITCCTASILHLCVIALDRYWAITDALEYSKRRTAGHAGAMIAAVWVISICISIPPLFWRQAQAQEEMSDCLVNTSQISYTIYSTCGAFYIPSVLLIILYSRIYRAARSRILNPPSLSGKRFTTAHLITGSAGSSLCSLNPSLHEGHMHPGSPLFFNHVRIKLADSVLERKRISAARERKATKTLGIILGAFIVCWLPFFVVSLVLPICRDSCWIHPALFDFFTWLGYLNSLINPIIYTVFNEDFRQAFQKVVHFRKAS
Sequence of 5-hydroxytryptamine receptor 1B (P28222 whole entry): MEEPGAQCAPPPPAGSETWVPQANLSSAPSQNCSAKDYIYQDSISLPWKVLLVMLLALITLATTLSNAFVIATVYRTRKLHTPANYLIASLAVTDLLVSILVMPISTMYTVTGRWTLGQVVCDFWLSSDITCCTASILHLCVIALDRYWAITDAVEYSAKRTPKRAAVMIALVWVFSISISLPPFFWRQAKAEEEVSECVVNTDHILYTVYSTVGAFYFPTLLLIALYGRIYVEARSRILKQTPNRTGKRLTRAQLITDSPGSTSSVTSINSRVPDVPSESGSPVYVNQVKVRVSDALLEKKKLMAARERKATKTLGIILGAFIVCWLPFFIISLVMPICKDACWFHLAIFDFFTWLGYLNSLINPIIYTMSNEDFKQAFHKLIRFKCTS

For the compound `COc1ccc2[nH]cc(CCN(C)C)c2c1` [MEBUFOTENIN], the half-inhibitory concentration (IC50) in assay [1] was 49 nM.

With `COc1ccc2[nH]cc(C[C@@H]3CCCN3C)c2c1`, the 50% inhibitory concentration (IC50) in assay [1] was 420 nM; in assay [2], 5800 nM; in assay [3] it was more than 8400 nM; in assay [4], 1200 nM; in assay [5], 680 nM.

On to `COc1ccc2[nH]cc(C[C@H]3CCCN3C)c2c1`, for which the half-maximal inhibitory concentration (IC50) was found to be 24 nM in assay [1]; 830 nM in assay [2]; 730 nM in assay [3]; 33 nM in assay [4]; 17 nM in assay [5]. The compound also returned a 50% effective concentration (EC50) in assay [6] of 43 nM.

In the case of `NCCc1c[nH]c2ccc(O)cc12` [SEROTONIN], in assay [1], the concentration for half-maximal inhibition (IC50) was 3 nM. The same compound had a 50% effective concentration (EC50) in assay [6] of 5.2 nM.

As usually defined, the IC50 is the midpoint of a concentration-inhibition curve. A high value points to a need for much substance. What is called EC50 is the concentration that produces a half-maximal response.
